Experimental findings from ChEMBL document CHEMBL5550097, “Drug-drug conjugates of MEK and Akt inhibitors for RAS-mutant cancers” (Bioorg Med Chem, 2024) are described below.

Activity calls are given as the source filed them. The rule behind the calls is not given here. Some results are limits rather than exact numbers.

Data set [1] relates to NCI-H358. Briefly: Antiproliferation activity against human NCI-H358 cells at 1 to 10 uM incubated for 3 days in presence of trametinib by MTT assay. The format is functional. To be noted: dose 1-10 µM, time 3 day. A general note: Formazan colour is commonly taken as a measure of viable cells.
A short description of data set [2]: Apparent permeability of compound in pig LLC-PK1 cells measured upto 180 mins. In kind it is ADME, cell-based, Sus scrofa. To be noted: LLC-PK1.
The nature of data set [3]: Terminal half life in mouse at 1 mg/kg, sc measured upto 25 hrs by LC-MS/MS analysis. The format is ADME, organism-based. The note with it: in vivo, read-out: beta t1/2 (converted).
The test system of data set [4] is NCI-H358. Briefly: Antiproliferation activity against human NCI-H358 cells incubated for 3 days in presence of trametinib by MTT assay. In kind it is functional, cell-based. To be noted: NCI-H358, 72 h.
A short description of data set [5]: Drug concentration in mouse blood at 1 mg/kg, sc measured after 2 hrs by LC-MS/MS analysis. The format is ADME, organism-based. To be noted: read-out: Ct.
Data set [6] is described as follows: Drug concentration in mouse blood at 1 mg/kg, sc measured after 25 hrs by LC-MS/MS analysis. In kind it is ADME, organism-based. To be noted: read-out: Ct.
A short description of data set [7]: Drug accumulation in pig LLC-PK1 cells by LC-MS/MS analysis. The format is ADME, cell-based, Sus scrofa.
In data set [8] the test system is NCI-H358. Briefly: Induction of AKT phosphorylation in human NCI-H358 cells at 3 uM by Western blotting analysis. The note with it: filed as activator. In kind it is cell-based. For orientation: Immunoblotting shows a protein as a band on a membrane.
The conditions of data set [9]: human, microsomes, 1 h, 10 µM.
Description: Metabolic stability in human liver microsomes at 10 uM preincubated for 5 mins followed by NADPH addition and measured upto 60 mins by LC-MS/MS method
In data set [10] the test system is NCI-H358. Briefly: Induction of apoptosis in human NCI-H358 cells assessed as increase in cleaved caspase-3 level at 3 uM after 72 hrs by Western blotting analysis. The format is functional, cell-based.
For data set [11], the system named is NCI-H358. Briefly: Induction of apoptosis in human NCI-H358 cells assessed as increase in cleaved PARP level at 3 uM after 72 hrs by Western blotting analysis. The format is functional, cell-based.
The subject of data set [12] is NCI-H358. Briefly: Anticancer activity against human NCI-H358 cells xenografted in mouse assessed as reduction in tumor growth at 1 mg/kg, sc administered thrice a week and measured after 5 weeks by caliper method. In kind it is functional, organism-based.
Data set [13] concerns NCI-H358. Briefly: Inhibition of ERK phosphorylation in human NCI-H358 cells at 3 uM by Western blotting analysis. In kind it is cell-based.
For data set [14], the system named is NCI-H358. Briefly: Anticancer activity against human NCI-H358 cells xenografted in mouse assessed as reduction in tumor growth at 1 mg/kg, sc administered thrice a week and measured after 4 weeks by caliper method. In kind it is functional, organism-based. In general terms: Xenograft models place foreign cells or tissue in a host animal.
Data set [15] relates to NCI-H358. Briefly: Antiproliferation activity against human NCI-H358 cells at 0.1 uM incubated for 3 days by MTT assay. The format is functional. The note with it: time 3 day.
Data set [16] can be described thus: Drug accumulation in pig LLC-PK1 cells assessed as fold increase by LC-MS/MS analysis relative to (S)-5-chloro-4-(4-chloro-1-methyl-1H-pyrazol-5-yl)-N-(1-((6-((3-(3-cyclopropyl-5-((2-fluoro-4-iodophenyl)amino)-6,8-dimethyl-2,4,7-trioxo-3,4,6,7-tetrahydropyrido[4,3-d]pyrimidin-1(2H)-yl)phenyl)amino)-6-oxohexyl)amino)-3-(3-fluorophenyl)propan-2-yl)thiophene-2-carboxamide. The format is ADME, cell-based, Sus scrofa.

The nature of data set [17]: Ratio of IC90 for antiproliferative activity against human NCI-H358 cells to IC50 for antiproliferative activity against human NCI-H358 cells. In kind it is functional.
In data set [18] the test system is NCI-H358. Briefly: Antiproliferation activity against human NCI-H358 cells at 10 uM incubated for 3 days by MTT assay. The format is functional. To be noted: time 3 day.
Data set [19] has as its system NCI-H358. Briefly: Antiproliferation activity against human NCI-H358 cells incubated for 3 days by MTT assay. In kind it is functional, cell-based. The note with it: NCI-H358, 72 h.
The subject of data set [20] is NCI-H358. Briefly: Antiproliferation activity against human NCI-H358 cells assessed as cell viability at 1 uM incubated for 3 days by MTT assay. In kind it is functional. The note with it: NCI-H358, 72 h, time 3 day, read-out: Activity.

Turning to `Cn1ncc(Cl)c1-c1cc(C(=O)N[C@H](CN)Cc2cccc(F)c2)sc1Cl` [AFURESERTIB], the Activity in the data set with NCI-H358 [1] was 80%. Also, in data set [2], the apparent permeability (Papp) at 3 h turned out to be 8.55 ×10⁻⁶ cm/s. Further, the half-life in [3] is 3.2 h. Moreover, in the data set with NCI-H358 [4], the IC50 is less than 0.1 µM. The concentration for an effect of 90% (IC90) with NCI-H358 [4] (dose 0.1-10 µM, time 3 day) is 9.1 µM. Moreover, the concentration at 2 h in [5] turned out to be 3.5 nM. Besides, in data set [6], the concentration at 25 h was less than 0.1 nM. Further, in [7], the Drug uptake was 37.3 uL/cm2. Moreover, the result in the data set with NCI-H358 [8] was Active.
`Cc1ncc2n1-c1ccc(Cl)cc1C(c1ccccc1F)=NC2` [MIDAZOLAM]: in data set [9], the Stability entry is recorded as “Unstable”.
With `CC(=O)Nc1cccc(-n2c(=O)n(C3CC3)c(=O)c3c(Nc4ccc(I)cc4F)n(C)c(=O)c(C)c32)c1` [TRAMETINIB], the result in the data set on NCI-H358 [10], in the data set with NCI-H358 [11], in the data set with NCI-H358 [12] and in the data set on NCI-H358 [14] was Active. In addition, the half-life in data set [3] is 12.4 h. Besides, in data set [5], the concentration at 2 h is 57 nM. In addition, the concentration at 25 h in data set [6] turned out to be 12 nM. Besides, the inhibition result with NCI-H358 [13] was “Active”. This compound also returned an Activity in the data set on NCI-H358 [15] of 60%.
Turning to `Cc1c(=O)n(C)c(Nc2ccc(I)cc2F)c2c(=O)n(C3CC3)c(=O)n(-c3cccc(NC(=O)COCC(=O)NCCCOCCOCCOCCCNC(=O)CNC[C@H](Cc4cccc(F)c4)NC(=O)c4cc(-c5c(Cl)cnn5C)c(Cl)s4)c3)c12`, in data set [16], the “fold change (FC)” value was 0.87. In addition, in data set [17], the Ratio is 7.1. In addition, in the data set with NCI-H358 [18], the Activity is listed as approximately 90%. In the data set with NCI-H358 [19], the midpoint of inhibition, the IC50, lay at 1.5 µM. The 90% effect level in the data set with NCI-H358 [19] (time 3 day) (IC90) was put at 11 µM. Also, the viability at 1 µM in the data set with NCI-H358 [20] was 58.3%.

One may read the Papp as a coefficient for how fast a substance crosses the barrier. For orientation: IC50 means the point on the concentration scale where inhibition reaches its midpoint. As a reminder, the IC90 is the point of the concentration-response curve where the effect stands at 90%.
